ChEMBL document CHEMBL1201862, “PubChem BioAssay data set” (2004)
The source made the active and inactive calls.

What was measured:
Protein RecA = target: T1, Protein RecA (Mycobacterium tuberculosis, UniProt P9WHJ3); experiment: Fluorescence Cell-Free Homogeneous Dose Retest to Identify Inhibitors of RecA-Intein Splicing Activity. [Related pubchem assays (depositor defined):AID2097, AID2223, AID489010, AID492950]; type: functional
T1 sequence (P9WHJ3 whole entry): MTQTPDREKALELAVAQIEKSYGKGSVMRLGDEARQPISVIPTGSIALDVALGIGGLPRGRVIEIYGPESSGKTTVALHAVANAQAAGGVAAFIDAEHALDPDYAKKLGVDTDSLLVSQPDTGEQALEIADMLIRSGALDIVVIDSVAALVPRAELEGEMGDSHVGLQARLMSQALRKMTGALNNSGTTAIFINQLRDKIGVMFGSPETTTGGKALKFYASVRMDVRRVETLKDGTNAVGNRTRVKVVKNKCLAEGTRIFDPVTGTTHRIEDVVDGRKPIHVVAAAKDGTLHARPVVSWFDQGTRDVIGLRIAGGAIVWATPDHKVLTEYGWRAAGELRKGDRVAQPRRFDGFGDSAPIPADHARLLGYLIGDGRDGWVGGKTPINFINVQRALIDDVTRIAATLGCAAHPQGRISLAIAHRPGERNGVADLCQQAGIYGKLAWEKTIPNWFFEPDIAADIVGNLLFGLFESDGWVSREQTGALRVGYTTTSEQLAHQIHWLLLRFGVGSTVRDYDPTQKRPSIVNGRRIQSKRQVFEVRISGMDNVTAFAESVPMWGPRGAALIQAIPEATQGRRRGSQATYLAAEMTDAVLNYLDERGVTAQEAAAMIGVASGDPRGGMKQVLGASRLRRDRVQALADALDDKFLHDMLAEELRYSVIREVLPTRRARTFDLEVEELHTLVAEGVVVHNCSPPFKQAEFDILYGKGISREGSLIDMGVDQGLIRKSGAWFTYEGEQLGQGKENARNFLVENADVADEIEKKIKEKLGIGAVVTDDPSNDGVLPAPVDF

[1] = target: T2, Replicative DNA helicase DnaB (Mycobacterium tuberculosis, UniProt P9WMR3); experiment: DnaB intein splicing inhibitors, dose response, biochemical, cell-free fluorescence (AID 449749); type: functional
T2 sequence (P9WMR3 whole entry): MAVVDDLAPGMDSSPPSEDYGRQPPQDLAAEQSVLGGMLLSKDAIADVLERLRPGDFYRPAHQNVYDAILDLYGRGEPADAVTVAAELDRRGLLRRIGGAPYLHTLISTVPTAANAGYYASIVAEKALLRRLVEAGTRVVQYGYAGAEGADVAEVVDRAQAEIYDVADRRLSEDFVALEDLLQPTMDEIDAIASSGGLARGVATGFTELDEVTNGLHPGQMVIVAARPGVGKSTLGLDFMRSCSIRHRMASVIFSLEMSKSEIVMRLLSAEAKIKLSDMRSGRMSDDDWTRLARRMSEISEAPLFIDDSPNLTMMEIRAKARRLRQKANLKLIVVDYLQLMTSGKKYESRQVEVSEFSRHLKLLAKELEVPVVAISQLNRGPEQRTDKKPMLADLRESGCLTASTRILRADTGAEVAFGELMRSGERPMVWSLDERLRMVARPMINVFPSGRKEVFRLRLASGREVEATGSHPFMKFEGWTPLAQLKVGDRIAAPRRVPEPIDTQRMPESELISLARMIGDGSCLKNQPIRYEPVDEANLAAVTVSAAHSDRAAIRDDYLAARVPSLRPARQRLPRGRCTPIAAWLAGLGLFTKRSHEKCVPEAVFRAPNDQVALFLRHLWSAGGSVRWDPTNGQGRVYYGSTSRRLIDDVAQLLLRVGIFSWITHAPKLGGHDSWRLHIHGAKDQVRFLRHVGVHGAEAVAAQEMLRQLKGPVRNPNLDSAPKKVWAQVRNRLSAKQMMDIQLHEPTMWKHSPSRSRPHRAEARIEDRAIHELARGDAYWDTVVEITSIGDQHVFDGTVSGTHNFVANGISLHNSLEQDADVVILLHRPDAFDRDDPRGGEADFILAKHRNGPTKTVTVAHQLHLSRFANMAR

[2] = target: Bifunctional protein GlmU (Mycobacterium tuberculosis, UniProt P9WMN3); experiment: Inhibitors of Mycobacterial Glucosamine-1-phosphate acetyl transferase (GlmU). Secondary screen.; design: species or system Mycobacterium tuberculosis H37Rv
Sequence of Bifunctional protein GlmU (P9WMN3 whole entry): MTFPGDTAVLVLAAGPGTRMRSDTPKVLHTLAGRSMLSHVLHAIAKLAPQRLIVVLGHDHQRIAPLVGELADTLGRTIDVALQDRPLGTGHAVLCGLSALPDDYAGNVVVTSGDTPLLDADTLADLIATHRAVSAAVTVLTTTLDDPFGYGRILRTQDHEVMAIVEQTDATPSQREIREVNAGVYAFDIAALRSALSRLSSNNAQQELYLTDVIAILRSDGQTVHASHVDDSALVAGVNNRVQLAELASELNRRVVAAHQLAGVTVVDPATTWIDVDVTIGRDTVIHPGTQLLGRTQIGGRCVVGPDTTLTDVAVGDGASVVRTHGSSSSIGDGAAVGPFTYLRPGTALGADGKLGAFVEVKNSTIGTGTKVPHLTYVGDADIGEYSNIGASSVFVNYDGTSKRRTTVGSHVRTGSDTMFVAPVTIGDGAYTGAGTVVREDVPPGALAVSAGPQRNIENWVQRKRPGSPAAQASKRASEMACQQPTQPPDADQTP

[3] = antiviral protection against BTV-induced cell death – arbovirus, BSR cells, confirmation (AID 1250); type: functional;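 further: protection from viral cytopathic effect measured as cell viability by ATP luminescence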
Aminopeptidase N = target: T3, Aminopeptidase N (Plasmodium falciparum FcB1/Columbia, UniProt O96935); experiment: malaria alanyl aminopeptidase activity blockers – biochemical, fluorogenic H-Leu-NHMec substrate, 1536-well (AID 1445); design: species or system Plasmodium falciparum 3D7, 3D7
T3 sequence (O96935 whole entry): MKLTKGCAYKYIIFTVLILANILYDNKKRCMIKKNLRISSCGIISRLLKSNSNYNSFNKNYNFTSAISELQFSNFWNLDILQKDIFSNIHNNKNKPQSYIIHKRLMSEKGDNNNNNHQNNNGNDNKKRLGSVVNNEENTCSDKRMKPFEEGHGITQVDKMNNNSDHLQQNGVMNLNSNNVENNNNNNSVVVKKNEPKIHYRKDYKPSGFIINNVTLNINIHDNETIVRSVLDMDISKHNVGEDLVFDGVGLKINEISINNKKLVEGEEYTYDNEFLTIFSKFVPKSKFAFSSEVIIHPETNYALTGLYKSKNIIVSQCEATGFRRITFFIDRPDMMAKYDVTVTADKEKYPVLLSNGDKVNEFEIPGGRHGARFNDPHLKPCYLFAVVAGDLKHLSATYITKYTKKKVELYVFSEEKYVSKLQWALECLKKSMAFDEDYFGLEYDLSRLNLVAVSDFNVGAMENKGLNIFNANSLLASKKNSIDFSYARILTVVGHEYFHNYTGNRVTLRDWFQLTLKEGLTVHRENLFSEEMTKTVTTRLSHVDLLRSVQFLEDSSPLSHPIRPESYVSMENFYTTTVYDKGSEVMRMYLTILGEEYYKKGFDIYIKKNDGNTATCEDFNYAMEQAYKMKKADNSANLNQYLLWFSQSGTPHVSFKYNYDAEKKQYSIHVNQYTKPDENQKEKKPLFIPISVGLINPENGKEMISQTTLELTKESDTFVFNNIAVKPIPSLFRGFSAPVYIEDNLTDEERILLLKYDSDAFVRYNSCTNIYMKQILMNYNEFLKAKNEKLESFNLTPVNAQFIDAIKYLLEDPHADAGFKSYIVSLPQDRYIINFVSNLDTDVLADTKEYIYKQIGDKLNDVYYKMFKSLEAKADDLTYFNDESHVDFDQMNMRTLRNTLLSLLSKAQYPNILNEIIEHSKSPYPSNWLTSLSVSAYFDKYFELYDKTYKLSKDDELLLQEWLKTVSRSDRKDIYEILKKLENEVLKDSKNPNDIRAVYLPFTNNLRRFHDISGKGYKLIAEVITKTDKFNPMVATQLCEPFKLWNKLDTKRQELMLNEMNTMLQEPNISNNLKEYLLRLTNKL

[4] = CCR5-tropic HIV-1 fusion blockers – cell-based, CCR5-tropic Env, dose response (AID 2279); type: functional
Estrogen receptor = target: T4, Estrogen receptor (Homo sapiens, UniProt P03372); experiment: blockers of SRC-3 recruitment to ERα – biochemical, ELISA, streptavidin-HRP readout, orthogonal assay, confirmation (AID 1079)
T4 sequence (P03372 whole entry): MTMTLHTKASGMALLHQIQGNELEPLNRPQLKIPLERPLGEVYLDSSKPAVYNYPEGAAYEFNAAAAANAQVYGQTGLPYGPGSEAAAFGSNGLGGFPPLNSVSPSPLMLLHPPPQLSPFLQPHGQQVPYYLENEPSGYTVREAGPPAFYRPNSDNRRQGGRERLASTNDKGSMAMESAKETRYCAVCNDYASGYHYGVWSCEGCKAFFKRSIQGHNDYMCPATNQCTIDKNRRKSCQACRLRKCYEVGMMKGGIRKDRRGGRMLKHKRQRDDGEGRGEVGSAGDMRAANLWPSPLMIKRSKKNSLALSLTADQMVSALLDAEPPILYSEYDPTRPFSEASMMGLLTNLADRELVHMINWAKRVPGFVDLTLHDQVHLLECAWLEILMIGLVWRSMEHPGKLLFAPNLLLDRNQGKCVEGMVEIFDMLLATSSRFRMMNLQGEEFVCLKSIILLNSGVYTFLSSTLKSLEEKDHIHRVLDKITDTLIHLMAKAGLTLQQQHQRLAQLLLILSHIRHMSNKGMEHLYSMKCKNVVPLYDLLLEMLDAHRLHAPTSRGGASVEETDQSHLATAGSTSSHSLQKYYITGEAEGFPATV

[5] = target: T5, Corticotropin-releasing factor receptor 2/Corticotropin-releasing factor-binding protein (Homo sapiens, UniProt P24387+Q13324); experiment: activators of CRF receptor 2 with binding protein – uHTS hits, confirmation (AID 602473); type: functional; details: read-out: EC50_Mean
T5 sequence (Q13324 whole entry): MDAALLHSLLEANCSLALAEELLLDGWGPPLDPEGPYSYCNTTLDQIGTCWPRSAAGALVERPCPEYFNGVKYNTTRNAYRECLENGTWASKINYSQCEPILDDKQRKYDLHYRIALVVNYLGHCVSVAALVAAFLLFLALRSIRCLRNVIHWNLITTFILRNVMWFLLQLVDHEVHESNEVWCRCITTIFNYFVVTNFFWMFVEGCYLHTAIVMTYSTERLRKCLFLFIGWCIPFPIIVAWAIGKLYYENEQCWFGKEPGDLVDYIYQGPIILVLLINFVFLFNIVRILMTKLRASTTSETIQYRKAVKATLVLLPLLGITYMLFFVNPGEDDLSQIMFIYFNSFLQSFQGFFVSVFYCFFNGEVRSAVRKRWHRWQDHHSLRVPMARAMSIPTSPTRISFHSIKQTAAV
T5 sequence (P24387 whole entry): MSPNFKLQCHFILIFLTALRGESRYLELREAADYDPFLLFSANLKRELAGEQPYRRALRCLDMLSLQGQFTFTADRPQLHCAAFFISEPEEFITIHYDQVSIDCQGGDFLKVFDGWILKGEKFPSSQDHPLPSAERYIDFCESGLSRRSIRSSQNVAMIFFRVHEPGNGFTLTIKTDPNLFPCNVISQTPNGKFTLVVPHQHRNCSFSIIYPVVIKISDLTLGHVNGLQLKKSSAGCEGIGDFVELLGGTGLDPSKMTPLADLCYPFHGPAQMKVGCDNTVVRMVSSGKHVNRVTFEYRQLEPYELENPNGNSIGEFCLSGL

[6] = Counterscreen for IDE inhibitors: Luminescence-based cell-based high throughput dose response assay to identify compounds that are cytotoxic to HEK cells. [Related pubchem assays: 434962 (Primary screen (IDE inhibitors in singlicate)), 449730 (Counterscreen (Cytotoxicity in triplicate)), 435028 (Confirmation (IDE inhibitors in triplicate)) …; type: functional; details: HEK293
Insulin-degrading enzyme = target: T6, Insulin-degrading enzyme (Homo sapiens, UniProt P14735); experiment: Dose Response: Fluorescence polarization-based cell-based high throughput dose response assay for inhibitors of insulin-degrading enzyme (IDE). [Related pubchem assays: 434962 (Primary screen (IDE inhibitors in singlicate)), 449730 (Counterscreen (Cytotoxicity in triplicate)), 435028 (Confirmation (IDE inhibitors in triplicate)), 434984 (Summary …; type: functional
T6 sequence (P14735 whole entry): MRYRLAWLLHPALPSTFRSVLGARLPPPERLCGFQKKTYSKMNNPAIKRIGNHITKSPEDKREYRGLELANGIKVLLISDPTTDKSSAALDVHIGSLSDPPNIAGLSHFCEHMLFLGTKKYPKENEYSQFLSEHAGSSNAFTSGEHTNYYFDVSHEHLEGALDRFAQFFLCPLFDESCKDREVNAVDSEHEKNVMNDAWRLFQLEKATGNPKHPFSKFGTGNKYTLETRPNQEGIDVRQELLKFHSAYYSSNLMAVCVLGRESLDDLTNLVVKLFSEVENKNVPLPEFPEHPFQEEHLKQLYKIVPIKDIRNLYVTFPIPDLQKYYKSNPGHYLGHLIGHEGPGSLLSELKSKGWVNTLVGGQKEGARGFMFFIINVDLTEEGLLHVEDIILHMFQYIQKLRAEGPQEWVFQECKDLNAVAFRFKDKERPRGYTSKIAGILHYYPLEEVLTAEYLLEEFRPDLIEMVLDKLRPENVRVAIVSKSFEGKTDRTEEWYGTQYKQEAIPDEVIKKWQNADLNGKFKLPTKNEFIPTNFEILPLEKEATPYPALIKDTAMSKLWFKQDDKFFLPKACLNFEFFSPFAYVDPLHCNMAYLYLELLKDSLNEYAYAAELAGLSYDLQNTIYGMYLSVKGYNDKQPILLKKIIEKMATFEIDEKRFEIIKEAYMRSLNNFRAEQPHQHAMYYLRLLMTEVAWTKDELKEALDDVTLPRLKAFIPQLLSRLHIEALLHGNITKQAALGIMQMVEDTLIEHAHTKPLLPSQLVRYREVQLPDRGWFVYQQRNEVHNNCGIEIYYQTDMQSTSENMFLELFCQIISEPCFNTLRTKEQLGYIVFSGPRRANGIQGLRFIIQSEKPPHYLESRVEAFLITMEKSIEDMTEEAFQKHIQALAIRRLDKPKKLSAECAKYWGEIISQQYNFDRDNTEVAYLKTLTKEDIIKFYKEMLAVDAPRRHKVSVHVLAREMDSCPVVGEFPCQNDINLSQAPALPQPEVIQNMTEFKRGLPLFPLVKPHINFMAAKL

SMILES: N#C/C(=C\c1ccc(O)c([N+](=O)[O-])c1)c1nc2ccccc2s1
- EC50 (Protein RecA): 4.58 µM (active)
- AC50 [1]: 7.01 µM (active)
- IC50 [2]: 71.8 µM (active)
- IC50 [3]: > 100 µM (active)
- IC50 (Aminopeptidase N): 33.9 µM (active)
- IC50 [4]: 3.41 µM (active)

SMILES: N#Cc1cccc(N2CCN(C(=O)CCCCCn3c(=S)[nH]c4ccccc4c3=O)CC2)c1
- IC50 (Estrogen receptor): 0.09 µM (not active)

SMILES: CCN(CC)c1ccc(/C=C2\CCC(/C=N/NC(=O)c3ccc(=O)n(C)c3)=C2N2CCOCC2)cc1
- EC50 [5]: 5.19 µM (active)
- IC50 [6]: 16.6 µM (not active)
- IC50 (Insulin-degrading enzyme): 12.5 µM (not active)
